{"source": "patent US11679124B2", "about": "“Composition for use in the treatment of conditions caused by calcium deficiency” (Epicyt Pharma AB, priority 2018, dated 2023)", "assay_type_in_all_cases": "cell-based, human", "key": {"Caco-2 cells": {"system": "Caco-2 cells", "assay": "Ca2+ transport across Caco-2 monolayer without calcium gradient", "details": "10 nM 1.25(OH)2-vitamin D3, last 48 hours; no Ca2+ gradient, 1.8 mM on each side", "procedure": "The Caco-2 cells were cultivated in on permeable support for 11-14 days, slightly modified according to Giuliano A. R., & Wood R. J. On the day of the experiments the trans-epithelial electrical resistance was measured and only preparations with values between 400 and 900 Ohms×cm^2 were counted. Tested substances were given in the top compartment and effect as read after 24 to 48 h. Ca^2+ flux was measured using liquid scintillation comparing the lower compartment with the upper.\nIn the present experiment the Caco-2 cells were cultured and grown to epithelium-shaped confluence over 14 days. The following experiments were performed according to Giuliano A. R., & Wood R. J. The effect of 10 nM 1.25(OH)2-vitamin D3 on the calcium transport was tested during the last 48 hours. Flux was tested without calcium (Ca^2+) gradient, concentration of calcium was 1.8 mM on each side of the layer of cells.\nIn the present experiment the Caco-2 cells were cultured and grown to epithelium-shaped confluence over 12 days. The cells were then grown in another 4 days in presence of 0.1 mM GCA, or in presence with 0.5 mM butyrate, or in presence of the GCA and butyrate in combination.\nThe effect of 10 nM 1.25(OH)2-vitamin D3 on the calcium transport was tested during the last 48 hours. […]"}, "Hsp 90β": {"system": "Hsp 90β", "assay": "Hsp 90β expression in Caco-2 cells, western blot", "details": "48 h, GCA 1×10^−4 M, butyrate 5×10^−4 M, vs. vehicle control", "procedure": "Caco-2 cells with a passage or about 45 (number of time they have been divided) (Sigma-Aldrich Stockholm Sweden) were cultured in Dulbecco's Modified Eagle's Medium (Life Technologies Invitrogen AB, Lidingo, Sweden), with 10% Foetal Bovine Serum (FBS) (Life Technologies), 1% Non Essential Amino Acid (NEAA) (Life Technologies), 100 IU/mL Penicillin Streptomycin (Pen-Strep) (Life Technologies). The cells were incubated in 37° C. with 5% CO2 and cultured in a cell culture flask (BD Falcon®, VWR Internationals, Stockholm, Sweden) and the medium was changed at Monday, Wednesday and Friday every week. […]\nFor the protein harvesting, the cells was scraped into lysis buffer in protein kinase blocking solution (1% Triton x-100, EDTA; ethylenediaminetetraacetic acid) containing protein kinase inhibitor buffer (10 mM potassium phosphate buffer pH 6.8, 10 mM 3-[(3-cholamidopropyl) dimethylammonio]-1-propane sulphonate (CHAPS: Boehringer Mannheim, Mannheim, Germany) and protease inhibitor cocktail tablet Complete (Roche Diagnostics AB, Stockholm, Sweden). After shaking several times on ice, the cell debris was removed by centrifugation (10000×g for 10 min at 4° C.) and the supernatant's protein content was analysed using the Bradford method. […]"}, "claudin-2": {"system": "claudin-2", "assay": "Claudin-2 protein expression in Caco-2 cells, western blot", "details": "vitamin D 10 μM or 100 μM, geldanamycin 0.5 μM", "procedure": "Caco-2 cells with a passage or about 45 (number of time they have been divided) (Sigma-Aldrich Stockholm Sweden) were cultured in Dulbecco's Modified Eagle's Medium (Life Technologies Invitrogen AB, Lidingo, Sweden), with 10% Foetal Bovine Serum (FBS) (Life Technologies), 1% Non Essential Amino Acid (NEAA) (Life Technologies), 100 IU/mL Penicillin Streptomycin (Pen-Strep) (Life Technologies). The cells were incubated in 37° C. with 5% CO2 and cultured in a cell culture flask (BD Falcon®, VWR Internationals, Stockholm, Sweden) and the medium was changed at Monday, Wednesday and Friday every week.\nThe cells were cultured for approximately 1 week before they were detached (0.25% trypsin-EDTA, Life Technologies) and seeded in 6 well plates with semipermeable filter inserts (3 μm pore size, BD Biosciences, Le Pont de Claix, France), 200 000 cells/well. At confluence the culture medium was changed to FBS-free in both the upper and lower well compartment and to the lower compartment also a mixture of […] insulin, 0.55 μg/mL transferring and 6.7 ng/mL selenium (ITS, Life Technologies) was added to establish cell polarity and structural differentiation (6-7). The cell monolayers were let to cultivate for 14 days before experiments. […]"}}, "data": [{"compound": "C=C1/C(=C\\C=C2/CCC[C@]3(C)[C@@H]([C@H](C)CCCC(C)(C)O)CC[C@@H]23)C[C@@H](O)C[C@@H]1O", "note": "[1.25(OH)2-vitamin D3]", "values": [{"measurement": "calcium transport (Experiment 3)", "setting": "Caco-2 cells", "value": "active transport of vitamin D was confirmed"}]}, {"compound": "C[C@H](CCC(=O)NCC(=O)O)[C@H]1CC[C@H]2[C@@H]3[C@H](O)C[C@@H]4C[C@H](O)CC[C@]4(C)[C@H]3C[C@H](O)[C@]12C", "note": "[GCA, glycocholic acid]", "values": [{"measurement": "Hsp 90β protein expression normalized to GAPDH", "setting": "Hsp 90β", "value": "no effect by itself"}]}, {"compound": "vitamin-D", "values": [{"measurement": "claudin-2 protein expression", "setting": "claudin-2", "value": "increase claudin-2 protein expression"}]}]}
